{"source": "patent US10604523B2", "about": "“1-aryl-4-methyl-[1,2,4]triazolo[4,3-a]quinoxaline derivatives” (Janssen Pharmaceutica NV, priority 2011, dated 2020)", "key": {"[1]": {"details": "male, Wistar, rat, in vivo", "quoted_text": "(§2) The biodistribution study was carried out in male Wistar rats (body weight 320-370 g) at 2 min, 10 min and 30 min post injection (p.i.) (n=3/time point). […] Blood and major organs were collected in tared tubes and weighed. The radioactivity in blood, organs and other body parts was measured using an automated gamma counter. The distribution of radioactivity in different parts of the body at different time points p.i. of the tracer was calculated and expressed as percentage of injected dose (% ID), and as standardized uptake values (SUV) for the selected organs. % ID is calculated as counts per minute (cpm) in organ/total cpm recovered. SUVs are calculated as (radioactivity in cpm in organ/weight of the organ in g)/(total counts recovered/body weight in g). For calculation of total radioactivity in blood, blood mass was assumed to be 7% of the body mass."}, "[2]": {"test": "Brain radiometabolite analysis of [18F]B-23", "format": "in vivo, rat", "protocol": "(§1) The metabolic stability of the tracer was studied in normal rats by determination of the relative amounts of parent tracer and radiometabolites in plasma and brain at 2 min and 10 min p.i. of the tracer. […] (n=1), blood was collected in lithium heparin containing tubes (4.5 mL LH PST tubes; BD vacutainer, BD, Franklin Lakes, USA) and stored on ice. Brain was dissected and rinsed with saline (decapitation was preferred since it was difficult to have the rat perfused already at 2 min p.i.). For the 10 min timepoint, rats (n=1) were injected with about 37 MBq of tracer and sacrificed at 10 min p.i by administering an overdose of Nembutal (CEVA Sante Animale, 200 mg/kg intraperitoneal). The rats were perfused by injection of saline into the left ventricle until the liver turned pale. During perfusion, blood was collected and stored on ice. Brain was isolated.\nFor the brain radiometabolite analysis, cerebrum and cerebellum were separated and homogenized in 3 mL and 2 mL of acetonitrile respectively, for about 3 min. A volume of 1 mL of this homogenate was diluted with an equal volume of water and 1 mL of the supernatant was filtered through a 0.22 μm filter (Millipore, Bedford, USA). About 0.5 mL of the filtrate was diluted with 0.1 mL of water and spiked with 10 μL of authentic reference material (1 mg/mL) for identification. A volume of 0.5 mL of the homogenate extracts were injected onto an HPLC system consisting of an analytical XBridge column (C18, 3.5 μm, 3 mm×100 mm, Waters) eluted with a mixture of 0.05 M sodium acetate (pH 5.5) and CH3CN (76:24 v/v) at a flow rate of 0.8 mL/min. The HPLC eluate was collected as 0.8-mL fractions (fraction collection per minute) after passing through the UV detector (254 nm), and radioactivity in the fractions was measured using an automated gamma counter. The peak corresponding to the intact tracer eluted around 10 min, the polar radiometabolite(s) around 5 min."}, "[3]": {"test": "Biodistribution study of [18F]B-23", "details": "mean ± SD, n = 3", "quoted_text": "as §2"}, "[4]": {"test": "Plasma radiometabolite analysis of [18F]B-23", "format": "in vivo, rat", "details": "for recovered radioactivity present as intact tracer in plasma: n=1", "protocol": "as §1\nFor the plasma radiometabolite analysis, the blood was centrifugated for 10 min at 3000 rpm to separate the plasma. A volume of about 0.1 mL of plasma sample was isolated and spiked with about 10 μL of authentic non-radioactive reference material (1 mg/mL) for identification. The plasma was then injected onto an HPLC system consisting of a Chromolith Performance column (C18, 3 mm×100 mm, Merck) that was eluted with mixtures of 0.05 M NaOAc pH 5.5 (solvent A) and acetonitrile (solvent B). The following method was used for the analysis: isocratic elution with 100% A for 4 min at a flow rate of 0.5 mL/min, then linear gradient to 90% B by 14 min at a flow rate of 1 mL/min, and isocratic elution with a mixture of 10% A and 90% B at a flow rate of 1 mL/min until 17 min. After passing through an in-line UV detector (254 nm) and over a 3 in. NaI(Tl) scintillation detector connected to a single channel analyzer (Gabi box, Raytest, Straubenhardt Germany), the HPLC eluate was collected per minute using an automatic fraction collector. The radioactivity in all fractions was measured using an automated gamma counter. The peak corresponding to the intact tracer eluted at ˜11 min. Polar radiometabolite(s) were eluting from 1 to 3 min. Slightly more polar radiometabolites (relatively to the polarity of the intact tracer) were eluting just before the intact tracer. Faster metabolisation is observed in plasma compared to brain. At 2 min p.i., about 70% of the recovered radioactivity was present as intact tracer. Two more polar radiometabolites (M1, M3) were observed of which one (M3) was closely eluting to the intact tracer. At 10 min p.i., the presence of a large amount of a third polar metabolite (M2, also closely eluting to the parent compound) was observed which accounted for about 60% of the recovered radioactivity. At 10 min p.i., only ˜20% of the recovered radioactivity was still present as intact tracer."}}, "note": "Read-outs that look alike come from different tables or passages of the source.", "data": [{"smiles": "Cc1nc2ccc(CN3CCOCC3)cc2n2c(-c3c([18F])cccc3Cl)nnc12", "note": "[[^18F]B-23, 1-(2-Chloro-6-[^18F]fluorophenyl)-4-methyl-8-(morpholin-4-ylmethyl)[1,2,4]triazolo[4,3-a]quinoxaline]", "values": [{"measurement": "% of the ID in the cerebellum", "setting": "[1]; 2 min", "value": "~0.1", "unit": "%"}, {"measurement": "% of the ID in the cerebrum", "setting": "[1]; 2 min", "value": "~1.0", "unit": "%"}, {"measurement": "% of the injected dose present in the blood", "setting": "[1]; 2 min", "value": "about 6.7%"}, {"measurement": "total brain uptake of the tracer (% ID)", "setting": "[1]; 2 min", "value": "~1.2", "unit": "%"}, {"measurement": "% ID in the brain", "setting": "[1]; 10 min", "value": 0.2, "unit": "%"}, {"measurement": "% ID in the brain", "setting": "[1]; 30 min", "value": 0.1, "unit": "% ID"}, {"measurement": "% ID in the urine and the kidneys", "setting": "[1]; 30 min", "value": 19, "unit": "% ID"}, {"measurement": "% of ID present in the liver and intestines", "setting": "[1]; 30 min", "value": 49, "unit": "%"}, {"measurement": "% of the injected dose present in the blood", "setting": "[1]; 30 min", "value": 4.1, "unit": "%"}, {"measurement": "apolar radiometabolites in brain", "setting": "[2]; 2 and 10 min p.i.", "value": "No apolar radiometabolites were detected"}, {"measurement": "intact tracer in cerebrum and cerebellum", "setting": "[2]; 2 min p.i., n=1", "value": "almost all of the recovered radioactivity in cerebrum and in cerebellum was present as intact tracer"}, {"measurement": "% of intact tracer in cerebellum", "setting": "[2]; 10 min p.i., n=1", "value": 82, "unit": "%"}, {"measurement": "SUV Blood", "setting": "[3]; 2 min p.i.", "value": "0.96 ± 0.05"}, {"measurement": "SUV Cerebellum", "setting": "[3]; 2 min p.i.", "value": "1.22 ± 0.23"}, {"measurement": "SUV Cortex", "setting": "[3]; 2 min p.i.", "value": "2.36 ± 0.48"}, {"measurement": "SUV Hippocampus", "setting": "[3]; 2 min p.i.", "value": "1.87 ± 0.22"}, {"measurement": "SUV Rest of cerebrum", "setting": "[3]; 2 min p.i.", "value": "2.63 ± 0.41"}, {"measurement": "SUV Striatum", "setting": "[3]; 2 min p.i.", "value": "4.36 ± 0.42"}, {"measurement": "SUV Blood", "setting": "[3]; 10 min p.i.", "value": "0.90 ± 0.08"}, {"measurement": "SUV Cerebellum", "setting": "[3]; 10 min p.i.", "value": "0.27 ± 0.02"}, {"measurement": "SUV Cortex", "setting": "[3]; 10 min p.i.", "value": "0.53 ± 0.02"}, {"measurement": "SUV Hippocampus", "setting": "[3]; 10 min p.i.", "value": "0.33 ± 0.04"}, {"measurement": "SUV Rest of cerebrum", "setting": "[3]; 10 min p.i.", "value": "0.57 ± 0.02"}, {"measurement": "SUV Striatum", "setting": "[3]; 10 min p.i.", "value": "1.77 ± 0.08"}, {"measurement": "SUV Blood", "setting": "[3]; 30 min p.i.", "value": "0.59 ± 0.08"}, {"measurement": "SUV Cerebellum", "setting": "[3]; 30 min p.i.", "value": "0.12 ± 0.04"}, {"measurement": "SUV Cortex", "setting": "[3]; 30 min p.i.", "value": "0.15 ± 0.04"}, {"measurement": "SUV Hippocampus", "setting": "[3]; 30 min p.i.", "value": "0.14 ± 0.04"}, {"measurement": "SUV Rest of cerebrum", "setting": "[3]; 30 min p.i.", "value": "0.22 ± 0.08"}, {"measurement": "SUV Striatum", "setting": "[3]; 30 min p.i.", "value": "0.61 ± 0.20"}, {"measurement": "apolar radiometabolites in plasma", "setting": "[4]; 2 and 10 min p.i.", "value": "No apolar radiometabolites were detected"}, {"measurement": "recovered radioactivity present as intact tracer in plasma", "setting": "[4]; 2 min p.i.", "value": "about 70%"}, {"measurement": "recovered radioactivity present as intact tracer in plasma", "setting": "[4]; 10 min p.i.", "value": "~20", "unit": "%"}]}]}
